Assay [1] has as its system carrageenan-induced paw edema. Put plainly: Carrageenan-induced rat paw edema model: paw volume. Type of assay: in vivo, male Sprague-Dawley rats. Particulars: oral, 1 hr before carrageenan, paw volume at 3 h; suboptimal doses: Compound A 1 mg/kg, indomethacin 0.5 mg/kg, betamethasone 0.05 mg/kg, alone or combined. The procedure: (§1) Carrageenan (0.05 ml of an 1% solution in saline) was injected into one hindpaw of male Sprague-Dawley rats. […] The increase in paw volume that occurred between the two timepoints was determined for each group. Rats received Compound A: [drawing 179] (see Example 405 of WO 02/083624) or standard drugs in methylcellulose vehicle by the oral route, 1 hr before carrageenan injection. The percentage by which the edematous response was inhibited was calculated by comparing the increase in paw edema of drug-treated rats to that of vehicle-treated controls. To determine neutrophil accumulation in the paws, rats were sacrificed at 3 hrs and myeloperoxidase (MPO) activity was measured from inflammatory fluid expressed from the hindpaw using a colorimetric assay (Bradley et al., 1982). PGE2 production in the hindpaw was assessed by ELISA (R&D Systems, Minneapolis, Minn.).
A general note: The carrageenan paw model is a standard test of acute inflammation.

Assay [2] deals with myeloperoxidase (MPO) activity. The assay is described as follows: Carrageenan-induced rat paw edema model: MPO activity in hindpaw inflammatory fluid (neutrophil accumulation). Type of assay: in vivo, male Sprague-Dawley rats. Particulars: oral, 3 hrs after carrageenan; Compound A 1 mg/kg, indomethacin 0.5 mg/kg, alone or combined. The protocol: Carrageenan (0.05 ml of an 1% solution in saline) was injected into one hindpaw of male Sprague-Dawley rats. Paw volumes (ml) were measured by a water displacement plethysmometer prior to and 3 h after the injection of carrageenan. The increase in paw volume that occurred between the two timepoints was determined for each group. Rats received Compound A:
[drawing 179] (see Example 405 of WO 02/083624) or standard drugs in methylcellulose vehicle by the oral route, 1 hr before carrageenan injection. The percentage by which the edematous response was inhibited was calculated by comparing the increase in paw edema of drug-treated rats to that of vehicle-treated controls. To determine neutrophil accumulation in the paws, rats were sacrificed at 3 hrs and myeloperoxidase (MPO) activity was measured from inflammatory fluid expressed from the hindpaw using a colorimetric assay (Bradley et al., 1982). PGE2 production in the hindpaw was assessed by ELISA (R&D Systems, Minneapolis, Minn.).

Assay [3] has as its system PGE2. Put plainly: Carrageenan-induced rat paw edema model: PGE2 production in the hindpaw (ELISA). Type of assay: in vivo, male Sprague-Dawley rats. The conditions noted are these: oral; Compound A 1 mg/kg, betamethasone 0.05 mg/kg, alone or combined. The protocol: as §1
Assay [4] deals with SCW-induced knee swelling. Put plainly: Streptococcal cell wall-induced mouse knee swelling model: knee swelling. Type of assay: in vivo, female C57BL/6J mice. The conditions noted are these: 2 hours after SCW injection. The protocol: (§2) The method described by Lubberts et al, 1998 was used for these studies, with some modifications. Female 8-12 week old C57BL/6J animals were fasted overnight and dosed orally with Compound A, indomethacin, or a combination of these agents suspended in methylcellulose one hour prior to a single intra-articular injection of 6 μl containing 25 μg of bacterial SCW (4.32 mg/ml rhammose; Lee Laboratories, Grayson, Ga.) in saline into the right knee joint. The left knee joint received an injection of 6 μl of saline at the same time. In other experiments, a neutralizing rat anti-mouse TNFα antibody or matched rat IgG isotype control was administered intraperitoneally two hours prior to SCW injection and Compound A or methylcellulose vehicle was orally administered one hour prior to SCW injection. Knee swelling measurements were performed 2 hours after SCW injection using a dial-gauge caliper ([…], Athol, Mass.) by measuring the difference in swelling between the right and left knee joints. Patellar organ cultures for assessment of synovial cytokine and chemokine and prostaglandin levels were prepared at 2 hours after SCW injection and established as described (Lubberts et al, 1998), using ELISA kits obtained from R&D Systems (Minneapolis, Minn.). Statistical analysis was performed using the Student's t-test, with p<0.05 considered to be indicative of statistical significant differences between groups.

The subject of assay [5] is IL-1β. Put plainly: SCW mouse knee model: IL-1β production by ex vivo patellar organ culture. Type of assay: in vivo, female C57BL/6J mice. The protocol:
as §2

Assay [6] concerns PGE2. The assay is described as follows: SCW mouse knee model: PGE2 levels in patellar organ culture. Type of assay: in vivo, female C57BL/6J mice. The procedure:
as §2, with “Statistical analysis was performed using the Student's t-test, with p<0.05 considered to be indicative of statistical significant differences between groups.” left out

Setting [7] is: indomethacin alone (2 mg/kg oral).

Take `CC[C@@H](Nc1c(Nc2cccc(C(=O)N(C)C)c2O)c(=O)c1=O)c1ccc(C)o1` [Compound A]: in assay [1], the “inhibition of paw edema” value was found to be 20%. In addition, in assay [2], the “inhibition of MPO activity in the hindpaw” value came to 67%. Moreover, the “inhibition of paw PGE2 levels” value in assay [3] was 31%. The “inhibition of knee swelling” value in assay [4] (Compound A 10 mg/kg oral, alone or with indomethacin 2 mg/kg) was determined as 46%; in assay [4] (Compound A 25 mg/kg oral, alone or with indomethacin 2 mg/kg), 70%. Also, the “inhibition of IL-1β production by ex vivo patellar organ culture” value in assay [5] (Compound A 10 mg/kg oral, alone or with indomethacin) is on record as 49%; in assay [5] (Compound A 25 mg/kg oral, alone or with indomethacin), 64%. The “inhibition of PGE2 levels in patellar organ culture” value in assay [6] (Compound A alone at 10-25 mg/kg oral) is recorded as 34-40%.
As for `C[C@H]1C[C@H]2[C@@H]3CCC4=CC(=O)C=C[C@]4(C)[C@@]3(F)[C@@H](O)C[C@]2(C)[C@@]1(O)C(=O)CO` [betamethasone, reference compound], in assay [1], the “inhibition of paw edema” value stood at 32%. Moreover, in assay [3], the “inhibition of paw PGE2 levels” value is 31%.
Consider `COc1ccc2c(c1)c(CC(=O)O)c(C)n2C(=O)c1ccc(Cl)cc1` [indomethacin, reference compound], for which the “inhibition of paw edema” value in assay [1] is 0%. Further, in assay [2], the “inhibition of MPO activity in the hindpaw” value is −58%. The “inhibition of knee swelling” value in assay [4] (indomethacin 2 mg/kg oral alone) amounted to 42%. In addition, in assay [5] (setting [7]), the “inhibition of IL-1β production by ex vivo patellar organ culture” value was determined as 11%. Also, the “inhibition of PGE2 levels in patellar organ culture” value in assay [6] (setting [7]) came out at 89%.
